Test results taken from patent US7056536B2, “Non-corrosive sterilant composition” (Ecolab Inc., priority 1998, dated 2006).

Test system: Bacillus cereus spores
Assay: Rate of Kill Antimicrobial Efficacy (SOP CB021-04), Formulas 1-8 with octanoic/peroctanoic acid, 40° C.
Assay type: cell-based
Conditions: on a weight basis
Description: Ecolab Microbiological Services SOP CB021-04; Rate of Kill Antimicrobial Efficacy. Following exposure to the formula and subsequent neutralization, spores were heat shocked for 13 minutes at 80° C. before plating. [table]

CCCCCCCC(=O)OO [peroctanoic acid, peroxyoctanoic acid]
effect on the sporicidal efficacy of 150 ppm POAA against B. cereus, compared with octanoic acid: greater effect
